In patent US20250034154A1, “SALTS AND SOLID FORMS OF A COMPOUND THAT MODULATES IRAK4” (Gilead Sciences, Inc., priority 2023, published 2025):

Assay: Dynamic vapor sorption (DVS) hygroscopicity
Type: physicochemical
Protocol: Hygroscopicity was studied using dynamic vapor sorption (DVS, TA Q5000 SA, TA Instruments, New Castle, DE or DVS, DVS Intrinsic, Surface Measurement Systems, London, UK). A sample (2-20 mg) was placed in an aluminum DVS pan and loaded on the sample side of the twin pan balance. The water sorption and desorption were studied as a function of relative humidity (RH) at 25° C. In 10% RH increments, the relative humidity was increased from 5% RH to 95% RH and then decreased back to 5%. […] Data analysis was performed using Universal Analysis 2000 Version 4.7A (TA Instruments, New Castle, DE) for TA DVS runs and Microsoft Excel for SMS DVS runs.

water absorbed (DVS analysis) (25° C. and 95% RH): less than 0.1 wt %
hygroscopicity (DVS analysis) (25° C., up to 95% RH): non-hygroscopic
form change by XRPD analysis of the sample post DVS analysis (post DVS): no form change
Structure (SMILES): C[C@H](C#N)Nc1cc(-c2ccc3cc(C#N)cnn23)ncc1C(=O)NC[C@@H](F)C(C)(C)O [Form IV, 4-(((R)-1-cyanoethyl)amino)-6-(3-cyanopyrrolo[1,2-b]pyridazin-7-yl)-N—((R)-2-fluoro-3-hydroxy-3-methylbutyl)nicotinamide]
